Measured values as given in patent USRE48461E1, “Modulation of androgen receptor expression” (Ionis Pharmaceuticals, Inc., priority 2012, dated 2021).
e = 2'-O-(2-methoxyethyl) (MOE); d = 2'-deoxy (DNA)

How the values were obtained:
Type in all cases: cell-based, human
[1] = system: total AR mRNA; assay: Total (full-length) AR mRNA in C4-2B MR cells, free uptake; settings: free uptake, 24 hrs
Procedure: Cells were plated at a density of 40,000 cells per well in 96-well plates and cultured in RPMI1640 medium with 10% fetal bovine serum. […] ISIS 549372, ISIS 549458, ISIS 549434, and ISIS 554221 were each added at 0.04 μM, 0.20 μM, 1.00 μM, and 5.00 μM concentrations of antisense oligonucleotide to culture media for free uptake by the cells. […] After a treatment period of 24 hrs, total AR mRNA levels were measured by quantitative real-time PCR using primer probe set RTS3559.

[2] = system: KLK3 mRNA; assay: KLK3 mRNA (AR target gene) in C4-2B MR cells
[3] = system: KLK2 mRNA; assay: KLK2 mRNA (AR target gene) in C4-2B MR cells
[4] = system: C4-2B MR cells; assay: Proliferation of MDV3100-resistant C4-2B cells (CellTiter 96); settings: 6 days
Procedure: ISIS 549372, ISIS 549434, ISIS 549458, and ISIS 554221 were each added to the culture media at 0.04 μM, 0.20 μM, 1.00 μM, and 5.00 μM concentration of antisense oligonucleotide. ISIS 347526 was included as a negative control. After a treatment period of 6 days, the proliferative capacity of the cancer cells was measured with using CellTiter 96® AQueous One Solution Cell Proliferation kit (Promega), following the manufacturer's instructions. Results are presented in Table 41 as percent inhibition of proliferation, relative to non-treated cells.

Substance: 347526 (TCTTATGTTTCCGAACCGTT; sugars from the 5' end e5 d10 e5, backbone and methylation of C not given here) [compound 347526]
- Percent inhibition of full-length AR mRNA in C4-2B MR cells ([1]; 0.04 μM): 28%
- Percent inhibition of full-length AR mRNA in C4-2B MR cells ([1]; 0.20 μM): 35%
- Percent inhibition of full-length AR mRNA in C4-2B MR cells ([1]; 1.00 μM): 31%
- Percent inhibition of full-length AR mRNA in C4-2B MR cells ([1]; 5.00 μM): 17%
- Percent inhibition of KLK3 mRNA in C4-2B MR cells ([2]; 0.04 μM): 5%
- Percent inhibition of KLK3 mRNA in C4-2B MR cells ([2]; 0.20 μM): 38%
- Percent inhibition of KLK3 mRNA in C4-2B MR cells ([2]; 1.00 μM): 42%
- Percent inhibition of KLK3 mRNA in C4-2B MR cells ([2]; 5.00 μM): 16%
- Percent inhibition of KLK2 mRNA in C4-2B MR cells ([3]; 0.04 μM): 28%
- Percent inhibition of KLK2 mRNA in C4-2B MR cells ([3]; 0.20 μM): 29%
- Percent inhibition of KLK2 mRNA in C4-2B MR cells ([3]; 1.00 μM): 23%
- Percent inhibition of KLK2 mRNA in C4-2B MR cells ([3]; 5.00 μM): 22%
- Percent inhibition of C4-2B MR cell proliferation ([4]; 0.04 μM): 11%
- Percent inhibition of C4-2B MR cell proliferation ([4]; 0.20 μM): 22%
- Percent inhibition of C4-2B MR cell proliferation ([4]; 1.00 μM): 7%
- Percent inhibition of C4-2B MR cell proliferation ([4]; 5.00 μM): 16%
